# Test results from patent US8653304B2, “2,3-dihydro-1H-indene-2-yl urea derivative and pharmaceutical application of same” (Toray Industries, Inc., priority 2009, dated 2014).
# System: colonic disorders in TNBS-induced colitis model
# Assay: Colonic disorders in TNBS-induced colitis model
# Assay type: in vivo
# Conditions: Wistar rat, oral 3 mg/kg once on TNBS day then twice a day for 4 days, colon 5 days after TNBS
# From the text: The action of Compound (I) on colonic disorders in inflammatory bowel disease models was studied. As the inflammatory bowel disease models, models partially modified from a TNBS-induced colitis model and a DSS-induced chronic colitis model described in documents (Gastroenterology, 1989, Vol. 96, pp. 29-36 and Am. J. Physiol. Gastrointest. Liver Physiol., 2004, Vol. 287, pp. G115-124) were used.
# To each Slc:Wistar rat (male, 12-week old, Japan SLC, Inc.), TNBS (Wako Pure Chemical Industries, Ltd.) dissolved in ethanol was rectally administered under anesthesia, and the TNBS solution was held in the rectum for 1 hour to produce the colitis model. These rats had been fasted from 2 days before the TNBS administration to the day of the TNBS administration. Five days after the TNBS administration, the colon was isolated from the each rat, and the macroscopic damage score (which is a total of adhesion score, diarrhea score and ulcer score) was recorded as an index of damage in the colon. The macroscopic damage score was calculated based on the scores of Dubigeon et al. (Eur. J. Pharmacol., 2001, Vol. 431, pp. 103-110) and the scores of Venkova et al. (J. Pharmacol. Exp. Ther., 2004, Vol. 308, pp. 206-213). […]
smiles,measurement,value
"COc1c(NC(=O)N[C@@H]2Cc3ccccc3[C@@H]2O)cc(C(C)(C)C)cc1[C@@H](O)C(F)(F)F [Compound 46b, 1-(5-tert-butyl-2-methoxy-3-((R)-2,2,2-trifluoro-1-hydroxyethyl)phenyl)-3-((1S,2R)-1-hydroxy-2,3-dihydro-1H-indene-2-yl)urea]",macroscopic damage score,3.3±0.7
